Data reported in US8686178B2, “Derivative of 18β-glycyrrhetinic acid apt to suppress cancer cells” (Kaohsiung Medical University, priority 2011, dated 2014).

Tests used:
[1] = tested on: human bladder cancer cell line NTUB1; assay: Trial (A): cytotoxic effect, IC50 by median-effect analysis; type: cell-based; conditions: NTUB1 cells
Excerpt: (§1) For the sake of proving therapeutic effects of the derivatives of 18β-glycyrrhetinic acid of the present invention, including 10, 11, 13-17 and 21-25, in treating of cancer, human bladder cancer cell line NTUB1, human prostate cancer cell line PC3 cataloged as CRL-1435 (reference to J. Formosan Med. Assoc. 1992; 91:608-13), and immortalized normal human urothelial cells SV-HUC1 cataloged as CRL-9520 are purchased from American Type Culture Collection (ATCC; Rockville, USA) and maintained in a culturing medium respectively till at a preferable density to carry out a serial of trials (comprising trial A to G) for evaluating cytotoxicities of the derivatives of 18β-glycyrrhetinic acid against cancer cells, and mechanisms thereof.
In the present invention, the NTUB1 and the PC3 is but not limit to be maintained in RPMI 1640 medium supplemented 10% fetal bovine serum (FBS), 100 unit/mL penicillin-G, 100 μg/mL streptomycin, and 2 mM L-glutamine, yet the SV-HUC1 is maintained in F12 medium supplemented with 10% fetal bovine serum (FBS), 100 unit/mL penicillin-G, 100 μg/mL streptomycin, and 2 mM L-glutamine, culturing at 37° C. in a humidified atmosphere containing 5% CO2 till at a density of 70% per well, followed by repeatedly suspending cells in each well with an ethylene diamine tetra-acetic acid buffer (EDTA buffer; Merck) and counting cell numbers.
In the present invention, the IC50 values of each group are presented as mean±standard deviation (SD).

NTUB1 = assay: Trial (B): MTT cytotoxicity assay, 72 hours; type: cell-based, human; conditions: 0-50 μM
Excerpt: as §1, with “thereof. […]” for “thereof.”
(§2) In trial (B), the cell lines of NTUB1, PC3, and SV-HUC1 are prepared in 96-well plates and co-incubated with the compounds 21, 23 or 25 in various concentrations of 0, 0.3, 1, 3, 5, 10, 30 and 50 μM, to analyze cytotoxic effects against either cancer cell or normal cells via a modified 3-[4,5-dimethylthiazol-2-yl]-2,5-diphenyltetrazolium bromide (MTT, Sigma Chemical Co.) assay. […] At co-incubation, 50 μL of MTT (2 mg/mL in PB) is added to each well to react for 3 hours, followed by centrifugating the 96-well plates at 1000 g for 10 min to remove supernatant, adding 150 μL DMSO in each well of the 96-well plates, and determining viability rates of the NTUB1, PC3, and SV-HUC1 cells separately by an absorbance spectrometry at 540 nm with a MRX (DYNEXCO) microplate reader.

[2] = tested on: immortalized normal human urothelial cells SV-HUC1; assay: Trial (B): MTT assay on normal cells, 72 hours; type: cell-based; conditions: 0-50 μM
Excerpt: as §1, with “thereof. […]” for “thereof.”
as §2

NTUB1 cells = assay: Trial (D): production of reactive oxygen species by flow cytometry (DCF); type: cell-based, human; conditions: 24 hours
Description: In trial (D), production of reactive oxygen species (ROS) is analyzed by flow cytometry, since the levels of ROS play an important role in apoptosis.
Referring to TABLE 4, the NTUB1 cells at a density of 8×10^5 cells/ml are prepared and assigned into 5 groups, including D1 to D5, to incubate in various medium for 24 hours. Next, 10 μM of 2,7-dichlorodihydrofluorescein diacetate (H2DCFHDA; Molecular Probes, Eugene, Oreg.) is added to the NTUB1 cells of each group 30 minutes prior than harvest, followed by collecting the NTUB1 cells of each group respectively and washing with PBS buffer. With such arrangement, the 2,7-dichlorodihydrofluorescein diacetate will penetrate into cells, interact with esterase, and degrade to 2,7-dichlorofluorescein (DCF) having green fluorescein, which can be determined by flow cytometer. In trial (D), green fluorescence of intracellular DCF in each group are analyzed immediately by FACScan flow cytometer (Becton Dickinson) at a wavelength of 525 nm.

C=C(C)[C@@H]1CC[C@]2(C)[C@H](C(=O)C=C3[C@@H]4C[C@@](C)(C(=O)NC(C)C)CC[C@]4(C)CC[C@]32C)[C@@]1(C)CCC(=O)NC(C)C [Compound 25, 3,4-seco-11-oxo-18β-olean-4(23),12-dien-3,30-diisopropyl carbamate]
cytotoxic effect against cancer cell ([1]; with reference to TABLE 2): significantly suppress the growth of cancer cells with a lower concentrate
IC50 ([1]; mean ± SD): 4.76 ± 1.15 µM
cytotoxic effect (survival ratio, FIGS. 4-6) (NTUB1): cytotoxic effects against to the cancer cells in a dose-dependent manner, particularly in against to NTUB1 cell
effect on growth of normal cells (survival ratio, FIGS. 4-6) [2]: enhance the growth of SV-HUC1 cells
ROS (%) (NTUB1 cells; 10 μM): 66.1%
ROS (%) (NTUB1 cells; 25 μM): 85.6%
